Data as given in US20260193283A1, “CARBOXAMIDE DERIVATIVE HAVING RSK INHIBITORY EFFECT, PHARMACEUTICAL COMPOSITION COMPRISING SAME, AND USE THEREOF” (KINOTECK THERAPEUTICS CO., LTD., priority 2022, published 2026).

Columns and labels:
RSK2 kinase = target: T1, RSK2 kinase (Homo sapiens, UniProt P51812); assay: HTRF KinEASE-STK assay of RSK2 kinase inhibition in vitro; assay type: biochemical; details: 0.18 nM RSK2 recombinase, 10 μM ATP, read-out: IC50, in vitro inhibitory activity on RSK2 kinase
T1 construct: purchased Carna 01-150
Method: The inhibitory effect of small molecule compounds on RSK2 kinase was detected using HTRF KinEASE-STK assay. […] Specifically, firstly, 2.5×RSK2 recombinase and 5×inhibitor were added to a buffer system in a 384 well plate, and incubated at room temperature for 10 minutes, negative control wells without enzyme and positive control wells without compounds were set at the same time, then, 2.5×peptide substrate and ATP were added, and then the reaction began.

MDA-MB-453 cells = assay: Triple negative breast cancer cell proliferation inhibition (CCK-8, 5 days); assay type: cell-based; details: Homo sapiens, 120 h, 5 days incubation, read-out: IC50, proliferation inhibitory activity on MDA-MB-453
Method: The compound or vehicle control (DMSO) was diluted in culture medium in a 96 well plate, with the final concentrations of 50, 25, 12.5, 6.25, 3.13, 1.56, 0.78, 0.39, 0.2, and 0.1 μM. 1×10^3 MDA-MB-453 cells were inoculated into each well, and the plate was incubated in the incubator for 5 days. After the incubation period, cell survival was quantified using Cell Counting Kit-8 (CCK-8) reagent. In short, the cells were incubated with CCK8 for 2-4 hours, and then the absorbance at 450 nm and 650 nm was measured. CCK-8 is WST-8 (chemical name: 2-(2-methoxy-4-nitrophenyl)-3-(4-nitrophenyl)-5-(2,4-disulfonate benzene)-2H tetrazole monosodium salt), which is reduced to a highly water-soluble yellow formazan dye by dehydrogenases in cells under the action of electron carrier 1-methoxy-5-methylphenazinium sulfate dimethyl ester (1-Methoxy PMS). The number of generated formazan dye substances is directly proportional to the number of live cells, so this characteristic can be used to calculate the survival percentage, as shown in the following equation:
[formula] • As: experimental well (the treatment wells containing cells, different concentrations of drug) • Ab: solvent control well (solvent treatment wells containing cells, 0 concentration of drug) • Ac: blank well (well without cells and drugs)
The cell survival rate data and corresponding compound concentrations were input into GraphPad Prism software to fit and calculate IC50 values.

[1] = Pharmacokinetic study in mice; assay type: in vivo; details: mouse; male ICR mice, oral gavage administration, 10 mg/kg, plasma
Method: Pharmacokinetic experiments in mice were conducted using male ICR mice weighed 20-25 g, provided by the Experimental Animal Management Department of Shanghai Family Planning Scientific Research Institute. 3 mice were taken and fasted overnight, and then administered orally by gavage (10 mg/kg). Blood samples were collected before administration, at 15 and 30 minutes as well as 1, 2, 4, 8, and 24 hours after administration; in addition, another 3 mice were taken and administered intravenously (1 mg/kg), and blood samples were collected before administration, at 15 and 30 minutes as well as 1, 2, 4, 8, and 24 hours after administration. blood sample was centrifuged at 6800 g, 2-8° C. for 6 minutes, and then the plasma was collected and stored at −80° C. Plasma at each time point were added 10-20 times the amount of methanol or acetonitrile solution containing internal standard, and mixed by vortex for 1 minute, centrifuged at 18000 rpm at 4° C. for 10 minutes, and then the supernatant was taken to analyze by LC-MS/MS directly. The main pharmacokinetic parameters were analyzed using WinNonlin 7.0 software for non compartmental model analysis.

T1 sequence (P51812 whole entry): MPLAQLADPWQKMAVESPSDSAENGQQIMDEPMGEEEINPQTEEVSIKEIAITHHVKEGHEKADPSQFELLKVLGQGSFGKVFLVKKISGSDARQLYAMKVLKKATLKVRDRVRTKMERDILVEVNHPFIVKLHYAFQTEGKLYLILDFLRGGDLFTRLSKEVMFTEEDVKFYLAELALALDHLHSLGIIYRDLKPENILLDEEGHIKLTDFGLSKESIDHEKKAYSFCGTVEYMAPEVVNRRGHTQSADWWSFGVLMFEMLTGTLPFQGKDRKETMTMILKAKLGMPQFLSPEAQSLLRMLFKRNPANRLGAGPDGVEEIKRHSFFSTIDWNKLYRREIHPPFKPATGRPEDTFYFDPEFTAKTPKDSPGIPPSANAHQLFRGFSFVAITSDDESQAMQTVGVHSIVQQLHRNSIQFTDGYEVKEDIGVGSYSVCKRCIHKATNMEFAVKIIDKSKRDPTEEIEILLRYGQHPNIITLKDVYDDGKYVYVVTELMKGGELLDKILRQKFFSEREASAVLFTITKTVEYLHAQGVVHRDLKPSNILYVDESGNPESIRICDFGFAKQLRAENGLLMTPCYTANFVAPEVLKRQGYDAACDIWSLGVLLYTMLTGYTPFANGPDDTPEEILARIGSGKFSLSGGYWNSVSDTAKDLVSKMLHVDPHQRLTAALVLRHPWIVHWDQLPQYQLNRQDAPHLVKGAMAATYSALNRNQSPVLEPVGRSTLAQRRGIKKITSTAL

IC50 (RSK2 kinase) [nM]	SMILES	other results
0.29	C[C@@H]1CNC(=O)c2cc3ccc(C(=O)Nc4cnn(Cc5ccc(C6(O)CCC6)nc5)c4)nc3n21 [Compound 11]	
0.43	C[C@@H]1NC(=O)c2cc3ccc(C(=O)Nc4cnn(Cc5ccc(C(C)(C)O)nc5)c4)nc3n2[C@@H]1C [Compound 12]	
5.43	C[C@@H]1CNC(=O)c2cc3ccc(C(=O)Nc4cnn(Cc5ccc(C(C)(C)O)nc5)c4)c(F)c3n21 [Compound 13]	
1.58	C[C@H]1Cn2c(cc3ccc(C(=O)Nc4cnn(Cc5ccc(C(C)(C)O)nc5)c4)nc32)C(=O)N1 [Compound 14]	
0.08	C[C@@H]1CNC(=O)c2cc3ccc(C(=O)Nc4cnn(Cc5cnc(C(C)(C)O)c(F)c5)c4)nc3n21 [Compound 15, (R)—N-(1-((5-fluoro-6-(2-hydroxyprop-2-yl)pyridin-3-yl)methyl)-1H-pyrazol-4-yl)-9-methyl-6-oxo-6,7,8,9-tetrahydropyridino [3, 2′: 4,5]pyrrolo [1,2-a]pyrazine-2-carboxamide]	IC50 (MDA-MB-453 cells): 2480 nM; AUC(0-t) [1]: 99300 ng·h/mL; Cmax [1]: 22800 ng/mL; Tmax [1]: 30 min; half-life [1]: 131 min
0.08	C[C@@H]1NC(=O)c2cc3ccc(C(=O)Nc4cnn(Cc5cnc(C(C)(C)O)c(F)c5)c4)nc3n2[C@@H]1C [Compound 16, (8S, 9R)—N-(1-((5-fluoro-6-(2-hydroxyprop-2-yl)pyridin-3-yl)methyl)-1H-pyrazol-4-yl)-8,9-dimethyl-6-oxo-6,7,8,9-tetrahydropyridino [3′, 2′: 4,5]pyrrolo [1,2-a]pyrazine-2-carboxamide]	
0.22	[2H]C([2H])([2H])C(O)(c1ccc(Cn2cc(NC(=O)c3ccc4cc5n(c4n3)[C@H](C)CNC5=O)cn2)cn1)C([2H])([2H])[2H] [Compound 17]	
1.08	C[C@@H]1CNC(=O)c2cc3ccc(C(=O)Nc4cnn(Cc5ccc(N)cc5)c4)nc3n21.Cl [Control Compound II, reference compound]	IC50 (MDA-MB-453 cells): 4600 nM; AUC(0-t) [1]: 4610 ng·h/mL; Cmax [1]: 3420 ng/mL; Tmax [1]: 25.2 min; half-life [1]: 49.2 min

The remaining lines, values behind:

SMILES	IC50 (RSK2 kinase) [nM]	other results
C[C@@H]1CNC(=O)c2cc3ccc(C(=O)Nc4cnn(Cc5ccc(P(C)(C)=O)cc5)c4)nc3n21 [Compound 1, (R)—N-(1-(4-(dimethylphosphoryl)benzyl)-1H-pyrazol-4-yl)-9-methyl-6-oxo-6,7,8,9-tetrahydropyridino[3′, 2′: 4,5]pyrrolo [1,2-a]pyrazine-2-carboxamide]	0.44	
C[C@@H]1CNC(=O)c2cc3ccc(C(=O)Nc4cnn(Cc5ccc(N=S(C)(C)=O)cc5)c4)nc3n21 [Compound 2, (R)—N-(1-(4-((dimethyl (oxo)-λ^6-sulfanylidene)amino)benzyl)-1H-pyrazol-4-yl)-9-methyl-6-oxo-6,7,8,9-tetrahydropyridino [3′,2′: 4,5]pyrrolo [1,2-a]pyrazine-2-carboxamide]	0.31	
C[C@@H]1CNC(=O)c2cc3ccc(C(=O)Nc4cnn(Cc5ccc(S(C)(=N)=O)cc5)c4)nc3n21 (some centres unmarked) [Compound 3]	0.24	
C[C@@H]1CNC(=O)c2cc3ccc(C(=O)Nc4cnn(Cc5ccnc(C(C)(C)O)c5)c4)nc3n21 [Compound 4]	0.42	IC50 (MDA-MB-453 cells): 2660 nM
C[C@@H]1CNC(=O)c2cc3ccc(C(=O)Nc4cnn(Cc5ccc(C(C)(C)O)nc5)c4)nc3n21 [Compound 5]	0.35	IC50 (MDA-MB-453 cells): 2040 nM; AUC(0-t) [1]: 35100 ng·h/mL; Cmax [1]: 17900 ng/mL; Tmax [1]: 15 min; half-life [1]: 94.2 min
C[C@@H]1CNC(=O)c2cc3cc(F)c(NC(=O)c4cnn(Cc5ccc(N)cc5)c4)nc3n21 [Compound 6, (R)-1-(4-aminobenzyl)-N-(3-fluoro-9-methyl-6-oxo-6,7,8,9-tetrahydropyridino [3′, 2″: 4,5]pyrrolo [1,2-a]pyrazin-2-yl)-1H-pyrazole-4-carboxamide]	175	
C[C@@H]1CNC(=O)c2cc3ccc(C(=O)Nc4cnn(Cc5ccc(N)cc5)c4)c(F)c3n21 [Compound 7, (R)—N-(1-(4-aminobenzyl)-1H-pyrazol-4-yl)-6-fluoro-4-methyl-1-oxo-1,2,3,4-tetrahydropyrazino [1,2-a]indole-7-carboxamide]	99.9	
CC(c1ccc(C(C)(C)O)nc1)n1cc(NC(=O)c2ccc3cc4n(c3n2)[C@H](C)CNC4=O)cn1 (stereo partly drawn) [Compound 8, (9R)—N-(1-(1-(6-(2-hydroxyprop-2-yl)pyridin-3-yl)ethyl)-1H-pyrazol-4-yl)-9-methyl-6-oxo-6,7,8,9-tetrahydropyridino [3′, 2′: 4,5]pyrrolo [1,2-a]pyrazine-2-carboxamide]	0.8	IC50 (MDA-MB-453 cells): 5610 nM
Cc1cc(NC(=O)c2ccc3cc4n(c3n2)[C@H](C)CNC4=O)nn1Cc1ccc(C(C)(C)O)nc1 [Compound 9]	43	
C[C@@H]1CNC(=O)c2cc3ccc(C(=O)Nc4cnn(Cc5ccc(C6(O)CC6)nc5)c4)nc3n21 [Compound 10]	0.11	
